# Values of other authors as cited in EP0719130B1, “COMPLEX CALCIUM AND FLUORIDE CONTAINING MOUTH RINSES, DENTIFRICES, AND CHEWABLE TABLETS” (AMERICAN DENTAL ASSOCIATION HEALTH FOUNDATION, priority 1993, dated 1995).
# Conditions: buffer acid or salt
row,pK,Molecule
1,7.4,O=S(=O)(O)CCN1CCN(CCO)CC1 [HEPES]
2,14.15,OCC(O)CO [glycerol]

row,Molecule,pK
1,tyrosine salts,8.4
